Consider four compounds from PubChem BioAssay AID1963959 (Molecular Pharmacology Branch, DTP, NCI, 2024).

Where “and” joins values, the source holds several entries; their conditions need not be identical. Equal entries are not always repeated.

The test system of this test is T-47D spheroids with HUVEC/MSC, viability. Nature of the test: Anticancer human tumor T-47D cell line growth inhibition [PI3K].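 For all read-outs here: spheroids exposed to agents for seven days before reading.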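 For viability, T/C: percent of DMSO vehicle control luminescence so 100% = untreated growth.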 The note with it: for viability, T/C: stronger effect = lower value. The text has this:
Combinatorial screen of targeted agents with the PI3K inhibitors inavolisib, alpelisib, duvelisib, and copanlisib in multi-cell type tumor spheroids
A high-throughput screen of multi-cell type tumor spheroids was designed to identify active combinations of targeted small molecules and PI3K pathway inhibitors. Complex spheroids include a stromal component modeled by human endothelial cells (HUVEC) and fibroblasts modeled by human mesenchymal stem cells (MSCs). The concentration ranges selected for each drug and investigational agent were based upon clinically achievable concentrations if the clinical Cmax of the agent was known.
Compounds. The drugs and investigational agents: inavolisib (NSC800729), alpelisib (NSC765974), duvelisib (NSC772469), copanlisib (NSC816437), ipatasertib (NSC767898), afuresertib (NSC778305), talazoparib (NSC767125), sapanisertib (NSC764658), selumetinib (NSC741078), tovorafenib (DAY101, NSC766906), vemurafenib (NSC761431), ravoxertinib (NSC781343), sotorasib (NSC818433), MRTX1133 (NSC 836407), abemaciclib (NSC 768073), palbociclib (NSC758247), venetoclax (NSC 766270), SY5609 (NSC837396), enzalutamide (NSC755605), and darolutamide (NSC825331), were obtained from the National Cancer Institute (NCI) Developmental Therapeutics Program Chemical Repository. The FDA-approved anticancer drug set is available from the NCI Developmental Therapeutics Program. […] The stock solutions were prepared in dimethyl sulfoxide (DMSO, Sigma-Aldrich, St. Louis, MO, cat. D2650) at 800-fold the tested concentration and stored at -70 degrees C prior to their use. All drugs and investigational agents were tested over a range starting from a high concentration at or near the clinical Cmax and decreasing in half-log increments. If the clinical Cmax for an agent had not been determined, the highest concentration tested was 10 microM.
Cell Culture. All cells were maintained in an incubator at 37 degrees C and 5% CO2 with 95% humidity. The PDC lines were cultured according to standard operating procedures established by the NCI PDMR (https://pdmr.cancer.gov/sops/default.htm). All PDCs were thawed and cultured in Matrigel-coated flasks prepared with a working solution of 1X Ham's F-12 nutrient mix, without supplementation (Invitrogen, Waltham, MA, cat. 11765054), 100 U/mL penicillin-streptomycin (Invitrogen, cat. 15140122), and 2.5% Matrigel (Corning Inc., Corning, NY, cat. 354248) for the first three passages. The 354836-022-R-J1-PDC, 475296-252-R-J1-PDC, and 997726-040-R-J2-PDC lines were cultured in 6A media, which includes advanced DMEM/F-12 (Thermo Fisher Scientific, cat. 12634028), 10 mM HEPES (Thermo Fisher Scientific, cat. 15630080), 1X GlutaMAX supplement (Thermo Fisher Scientific, cat. 35050061), 0.1 mg/mL primocin (InvivoGen, San Diego, CA, cat. ant-pm-2), 10% defined fetal bovine serum, heat inactivated (HyClone Laboratories Inc., Logan, UT, cat. SH30070.03HI), 50% L-WRN conditioned media (ATCC, cat. CRL-3276), 1.25 mM N-Acetyl-L-cysteine (Sigma-Aldrich, cat. A9165), 10 mM nicotinamide (Sigma-Aldrich, cat. N0636), 1X B-27 supplement (Thermo Fisher Scientific, cat. 17504044), 1X N-2 supplement (Thermo Fisher Scientific, cat. 17502048), and 10 microM Y-27632 dihydrochloride (Tocris Bioscience, Bristol, United Kingdom, cat. 1254). The 624824-186-R-J2-PDC line was cultured in 6C/Colon 1B media, which includes all 6A media components plus 50 ng/mL human EGF recombinant protein (Thermo Fisher Scientific, cat. PHG0311). […]

[1] abbreviates: curve of first compound, second compound 0.00316 µM.
Setting [2] is: curve of first compound, second compound 0.01 µM.
Setting [3] is: curve of first compound, second compound 0.0316 µM.
The mark [4] stands for this setting: curve of first compound, second compound 0.1 µM.
The mark [5] stands for this setting: curve of first compound, second compound 0.316 µM.
[6] abbreviates: curve of first compound, second compound 1 µM.
Where [7] appears, read: second compound 0.00316 µM, first compound 0.0316 µM.
The mark [8] stands for this setting: second compound 0.00316 µM, first compound 0.1 µM.
Where [9] appears, read: second compound 0.00316 µM, first compound 0.316 µM.
Setting [10] is: second compound 0.00316 µM, first compound 1 µM.
Setting [11] is: second compound 0.00316 µM, first compound 3.16 µM.
Where [12] appears, read: second compound 0.00316 µM, first compound 10 µM.
Setting [13] is: second compound 0.01 µM, first compound 0.0316 µM.
Where [14] appears, read: second compound 0.01 µM, first compound 0.1 µM.
[15] abbreviates: second compound 0.01 µM, first compound 0.316 µM.
The mark [16] stands for this setting: second compound 0.01 µM, first compound 1 µM.
[17] abbreviates: second compound 0.01 µM, first compound 3.16 µM.
Where [18] appears, read: second compound 0.01 µM, first compound 10 µM.
Where [19] appears, read: second compound 0.0316 µM, first compound 0.0316 µM.
[20] abbreviates: second compound 0.0316 µM, first compound 0.1 µM.
The mark [21] stands for this setting: second compound 0.0316 µM, first compound 0.316 µM.
Where [22] appears, read: second compound 0.0316 µM, first compound 1 µM.
[23] abbreviates: second compound 0.0316 µM, first compound 3.16 µM.
The mark [24] stands for this setting: second compound 0.0316 µM, first compound 10 µM.
The mark [25] stands for this setting: second compound 0.1 µM, first compound 0.0316 µM.
[26] abbreviates: second compound 0.1 µM, first compound 0.1 µM.
Setting [27] is: second compound 0.1 µM, first compound 0.316 µM.
[28] abbreviates: second compound 0.1 µM, first compound 1 µM.
Setting [29] is: second compound 0.1 µM, first compound 3.16 µM.
Where [30] appears, read: second compound 0.1 µM, first compound 10 µM.
The mark [31] stands for this setting: second compound 0.316 µM, first compound 0.0316 µM.
The mark [32] stands for this setting: second compound 0.316 µM, first compound 0.1 µM.
Setting [33] is: second compound 0.316 µM, first compound 0.316 µM.
Setting [34] is: second compound 0.316 µM, first compound 1 µM.
The mark [35] stands for this setting: second compound 0.316 µM, first compound 3.16 µM.
Setting [36] is: second compound 0.316 µM, first compound 10 µM.
[37] abbreviates: second compound 1 µM, first compound 0.0316 µM.
Setting [38] is: second compound 1 µM, first compound 0.1 µM.
The mark [39] stands for this setting: second compound 1 µM, first compound 0.316 µM.
[40] abbreviates: second compound 1 µM, first compound 1 µM.
[41] abbreviates: second compound 1 µM, first compound 3.16 µM.
The mark [42] stands for this setting: second compound 1 µM, first compound 10 µM.

Take `C#Cc1c(F)ccc2cc(O)cc(-c3ncc4c(N5CC6CCC(C5)N6)nc(OCC56CCCN5CC(F)C6)nc4c3F)c12` (centres undefined) + COc1c(OCCCN2CCOCC2)ccc2c3n(c(=NC(=O)c4cnc(N)nc4)nc12)CCN3: the IC50 under setting [1] is greater than 10 µM; the IC50 under setting [2] was greater than 10 µM; the IC50 under setting [3] is greater than 10 µM; the IC50 under setting [4] was less than 0.0316 µM; the IC50 under setting [5] is less than 0.0316 µM; the IC50 under setting [6] is less than 0.0316 µM. Moreover, the viability, T/C is 102% under setting [7]; 93.1% under setting [8]; 93% under setting [9]; 82.5% under setting [10]; 116% under setting [11]; 109% under setting [12]. The viability, T/C is 95.1% under setting [13]; 99.9% under setting [14]; 105% under setting [15]; 99.5% under setting [16]; 114% under setting [17]; 111% under setting [18]. Further, the viability, T/C is, setting by setting: under setting [19], 80.5%; under setting [20], 78.8%; under setting [21], 79.8%; under setting [22], 84.8%; under setting [23], 79.2%; under setting [24], 87.5%. Besides, the viability, T/C is 45.1% under setting [25]; 46.4% under setting [26]; 46.8% under setting [27]; 49.2% under setting [28]; 39.6% under setting [29]; 49.5% under setting [30]. The viability, T/C reads like this: under setting [31], 20.2%; under setting [32], 14.5%; under setting [33], 20.5%; under setting [34], 22.3%; under setting [35], 22.3%; under setting [36], 27.1%. In addition, the viability, T/C is, setting by setting: under setting [37], 7.11%; under setting [38], 6.61%; under setting [39], 8.19%; under setting [40], 8.13%; under setting [41], 5.78%; under setting [42], 9.52%.
As to `CCCS(=O)(=O)Nc1ccc(F)c(C(=O)c2c[nH]c3ncc(-c4ccc(Cl)cc4)cc23)c1F` + COc1c(OCCCN2CCOCC2)ccc2c3n(c(=NC(=O)c4cnc(N)nc4)nc12)CCN3, the IC50 reads like this: under setting [1], greater than 10 µM; under setting [2], greater than 10 µM; under setting [3], greater than 10 µM; under setting [4], less than 0.0316 µM; under setting [5], less than 0.0316 µM; under setting [6], less than 0.0316 µM. Moreover, the viability, T/C was 104% under setting [7]; 86.9% under setting [8]; 110% under setting [9]; 94.1% under setting [10]; 69.5% under setting [11]; 56.8% under setting [12]. The viability, T/C runs as follows: under setting [13], 98.3%; under setting [14], 86.2%; under setting [15], 83.4%; under setting [16], 92.4%; under setting [17], 87.4%; under setting [18], 51.3%. Besides, the viability, T/C runs as follows: under setting [19], 66.8%; under setting [20], 77%; under setting [21], 73.9%; under setting [22], 62.5%; under setting [23], 57.5%; under setting [24], 52.2%. Also, the viability, T/C by setting is: under setting [25], 38%; under setting [26], 42.6%; under setting [27], 36.4%; under setting [28], 39.8%; under setting [29], 31.6%; under setting [30], 33.7%. Moreover, the viability, T/C is 14.9% under setting [31]; 22.1% under setting [32]; 18.3% under setting [33]; 16.1% under setting [34]; 18.8% under setting [35]; 20.5% under setting [36]. Moreover, the viability, T/C reads like this: under setting [37], 5.53%; under setting [38], 9.03%; under setting [39], 6.15%; under setting [40], 2.77%; under setting [41], 4.64%; under setting [42], 6.82%.
For the compound `CC(Nc1ncnc2nc[nH]c12)c1cc2cccc(Cl)c2c(=O)n1-c1ccccc1` (centres undefined), the viability, T/C is, setting by setting: (compound 0.0316 µM) 96.2% [middle of 8 runs]; (compound 0.316 µM) 96.2% [middle of 8 runs]. The half-inhibitory concentration (IC50) (compound alone, run of 04/25/2023) was greater than 10 µM.
Consider `CC1(C)CCC(Nc2ncc(C(F)(F)F)c(-c3c[nH]c4c(P(C)(C)=O)c(C#N)ccc34)n2)CN1` (centres undefined), for which the viability, T/C by setting is: (compound 0.0316 µM) 66% (2×) and 68.7% and 70.4%; (compound 0.1 µM) 72% [middle of 4 runs]; (compound 0.316 µM) 69.9% [middle of 4 runs]; (compound 1 µM) 79.7% [middle of 4 runs]; (compound 3.16 µM) 79.9% [middle of 4 runs]; (compound 10 µM) 54.5% (2×) and 54.6% and 58.2%. In addition, under “curve of compound”, the IC50 is greater than 10 µM.
